Reference: patent US20250282775A1, “SOLID FORM OF 3-((1R,3R)-1-(2,6-DIFLUORO-4-((1-(3- FLUOROPROPYL)AZETIDIN-3-YL)AMINO)PHENYL)-3-METHYL-1,3,4,9- TETRAHYDRO-2H-PYRIDO[3,4-B]INDOL-2-YL)-2,2-DIFLUOROPROPAN-1-OL TARTRATE” (Hoffmann-La Roche Inc., priority 2022, published 2025)

Experiments:
Assay type in all cases: physicochemical
[1] = Bulk density, tapped density and flowability of API; settings: for Bulk Density / Tapped Density: API lot
Method: (§1) The following table illustrates the improved manufacturability properties of the crystalline API that is prepared according to the process of the present invention (lot “BS2008SA02”). The E1 lot was prepared according to the process described in WO2019245974.

[2] = BET surface area of API lots; settings: API lot
Method: as §1

[3] = Particle size distribution by laser diffraction; settings: API lot
Method: The particle size distribution of crystalline 3-((1R,3R)-1-(2,6-difluoro-4-((1-(3-fluoropropyl)azetidin-3-yl)amino)phenyl)-3-methyl-1,3,4,9-tetrahydro-2H-pyrido[3,4-b]indol-2-yl)-2,2-difluoropropan-1-ol tartrate of the invention was analyzed by laser diffraction as described in the USP <429> for Laser Diffraction Measurement of Particle Size and in the European Pharmacopoeia chapter 2.9.31 Particle size analysis by Laser Diffraction. Details of the apparatus used and measurements are given in Example 3.
For the measurement, a Malvern MasterSizer 3000 device from Malvern, UK, coupled with a liquid dispersion unit Hydro MV®, Malvern, UK was used. The crystalline Giredestrant tartrate as obtained from Example 1 or 2 was dispersed in dispersion medium consisting in technical grade n-heptane with 0.2% w/w.-% Span 85 (Sorbitane trioleate, e.g. Fluka/Sigma Cat. Nr. 85549 or equivalent) non-saturated.
Procedure: the crystalline Giredestrant tartrate is directly added in the Hydro MV dispersion unit and stirred at 2500 rpm achieving an appropriate optical concentration (between 5% and 25% optical concentrations).
Measurement: The test dispersion was measured and the cumulative volume dispersion was determined using the laser diffraction instrument mentioned above in accordance with the instruction manual. Measurements were performed after 2 minutes stirring time. The Fraunhofer approximation was used for the particle diameters calculations, Opaque Particle was used for the Particle type and General purpose was used for the Analysis model. The background and the measuring duration were set at 30 seconds.
Three independent samples were measured one time. The average particle size distribution in volume at the undersize values of 10%, 50% and 90% (×10, ×50 and ×90) percentiles were evaluated from the cumulative distribution.
as §1

[4] = Effect of compression on API degradation (HPLC); settings: 60° C./11% RH, containers open, up to 4 weeks, tartrate
Method: The effect of compression on API degradation was investigated. Samples of uncompressed API (neat API powder as-is) and compressed API (compact) were aged at 60° C./11% RH with containers open for up to 1 month. Samples were assayed by HPLC (see Example 10). […] The following HPLC method was used to measure the RRCs described herein: [table]

[5] = Form B as prepared per WO2019245974

Compound | Bulk Density [1] [g/mL] | Tapped Density [1] [g/mL] | BET SA [2] [m2/g] | D10 [3] [μm] | D50 [3] [μm] | D90 [3] [μm] | bulk density (in words) [1, 5] | flowability [1, 5] | growth of the impurity at RRT=0.58 ([4]; listed as compressed API) | growth of the impurity at RRT=0.58 ([4]; listed as uncompressed API)
C[C@@H]1Cc2c([nH]c3ccccc23)[C@@H](c2c(F)cc(NC3CN(CCCF)C3)cc2F)N1CC(F)(F)CO.O=C(O)C(O)C(O)C(=O)O [711-005-5467-001 (E1)] | 0.31 | 0.41 | 2.9 | 2 | 8 | 27 | – | – | – | –
C[C@@H]1Cc2c([nH]c3ccccc23)[C@@H](c2c(F)cc(NC3CN(CCCF)C3)cc2F)N1CC(F)(F)CO.O=C(O)C(O)C(O)C(=O)O [BS2008SA02] | 0.57 | 0.64 | 1.7 | 30 | 41 | 56 | – | – | – | –
C[C@@H]1Cc2c([nH]c3ccccc23)[C@@H](c2c(F)cc(NC3CN(CCCF)C3)cc2F)N1CC(F)(F)CO.O=C(O)C(O)C(O)C(=O)O [giredestrant tartrate, 3-((1R,3R)-1-(2,6-difluoro-4-((1-(3-fluoropropyl)azetidin-3-yl)amino)phenyl)-3-methyl-1,3,4,9-tetrahydro-2H-pyrido[3,4-b]indol-2-yl)-2,2-difluoropropan-1-ol tartrate] | – | – | – | – | – | – | low bulk density | poor flowability | faster growth rate | growth of the impurity at RRT=0.58 was observed
